According to patent publication US20240059729A1, “MULTIFUNCTIONAL CYCLIC DINUCLEOTIDE AND USE THEREOF” (TYLIGAND BIOSCIENCE (SHANGHAI) LIMITED, priority 2020, published 2024):
Structures can show the parent of a compound that is named as a salt.

How the values were obtained:
[1] = tested on: CT26 cells; experiment: Immunological memory function in CT26 transplantation tumor model, syngeneic or nude mouse (re-inoculation); format: in vivo, BALB/c immune-competent or nude mice; conditions: for Average tumor volume after re-inoculation of CT26 cells: immunocompetent BALB/c mice
Method: BALB/c immune-competent or nude mice of 6-8 weeks (purchased from Shanghai Ling Chang Biotech Co., Ltd.) were inoculated with 5×10^5 CT26 cells (supplied by Taicang Zexin Biotechnology Co., Ltd., ATCC #CRL-2638) subcutaneously on the right back dorsal, respectively, and the inoculation volume was 0.1 mL. When tumors grew to an average volume of 100 mm^3, they were randomized according to tumor size and mouse body weight and dosed. The day of the first dose was Day 0. Two doses were administered on Day 0 and Day 4, with 50 μg of compound/mouse (i.e., 2.5 mg/kg) injected intratumorally, with the same volume of PBS (Hyclone, Cat #SH30258.01) as a control. Mice in the nude or BALB/c mice groups were sacrificed on Day 9 or Day 13 post-dosing, respectively. On Day 21 post-dosing, mice were inoculated again subcutaneously on the left back dorsal with 5×10^5 CT26 cells in a volume of 0.1 mL. Blank BALB/c or nude mice without any treatment were also inoculated as controls. During the experiment, tumor volumes and the body weights were measured 3 times per week, and the tumor volume was calculated as V=D×d×d/2 (Ibid).

[2] = Hepatocyte metabolic stability assay; format: in vitro ADME; conditions: 5 species of hepatocytes (mouse, rat, dog, monkey, human); FIG. 4A
From the text: The compounds of the invention were similarly tested for hepatocyte metabolic stability in 5 species (mouse, rat, dog, monkey, human) according to standard methods of in vitro metabolic stability studies conventional in the art, for example (Kems, Edward H. and Di Li (2008). Drug-like Properties: Concepts, Structure Design and Methods: From ADME to Toxicity Optimization, San Diego: Academic Press; Di, Li et al, Optimization of a High Throughput Microsomal Stability Screening Assay for Profiling Drug Discovery Candidates, J Biomol Screen. 2003, 8(4), 453).
The hepatocytes used in the experiment: human hepatocytes (SHQY, Lot #HEP190006), dog hepatocytes (IVT, Lot #ZMB); monkey hepatocytes (Xenotech, Lot #2010022), rat hepatocytes (SHQY, Lot #HEP134045), and mouse hepatocytes (BioIVT, Cat. #M005052, Lot. #MEO).
Cryopreserved hepatocyte tubes were removed from a liquid nitrogen tank and immediately placed ill in a shaking water bath at 37±1° C. for 2 minutes±15 seconds. […] The supernatant was aspirated without touching the cell pellet, and cell viability and number were determined. The hepatocytes were counted and then the cell suspension was diluted in KHB buffer to the appropriate density (viable cell density=2×10^6 cells/mL). […]

For `Nc1nc2c(ncn2[C@@H]2O[C@@H]3CO[P@@](=O)(S)OC4C(F)[C@H](n5cnc6c(N)nc(Cl)nc65)O[C@@H]4CO[P@@](=O)(S)OC2C3O)c(=O)[nH]1` (stereo partly drawn) [Example 10, (2′,3′)-cyclo-(Rp,Rp)-[2′-O-phosphorothioate-diester-guanosine]-[3′-O-phosphorothioate-diester-2-chloro-2′-deoxy-2′-fluoro-beta-adenosine] diammonium salt], the “CT26 tumor growth inhibition in immunocompetent and immunodeficient mice (in words)” value ([1]; 50 μg/mouse intratumorally, Day 0 and Day 4) was “significantly inhibited CT26 tumor growth in both immunocompetent and immunodeficient mice”, the “Tumor status in treated immunocompetent mice” value ([1]; Day 5 post-dosing) was “the tumors completely disappeared” and the “Average tumor volume after re-inoculation of CT26 cells” value ([1]; re-inoculated Day 21, end of experiment Day 33) was 101 mm^3. For the same compound, the “Average tumor volume after re-inoculation of CT26 cells” value ([1]; re-inoculated Day 21, measured Day 30) was 29 mm^3, the “Immunological memory in immunocompetent mice” value ([1]; re-inoculated CT26 cells) was “developed an immunological memory” and the “Immunological memory in immunodeficient nude mice” value ([1]; re-inoculated CT26 cells Day 21) was “no immunological memory has been generated”. For the same compound, the “Hepatocyte metabolic stability (in words)” value [2] was “good metabolic stability”.
